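Growth conditions: 96-well plates. Treatment: test compound, 48 hours, 5 concentrations. Analysis: linear interpolation between bracketing concentrations; unreached endpoints set to highest concentration. GI50: concentration for 50% inhibition of growth.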 Activity calls are given as the source filed them. Rule as the data show it: active = GI50 up to about 1.1 µM and inactive = higher.

Some test systems named below: A549; BT-549; CCRF-CEM; DU-145; EKVX; HCC 2998; HCT-116; HCT-15; HL-60; HT-29; NCI-H226; NCI-H460; NCI/ADR-RES; OVCAR-5; OVCAR-8; PC-3; RPMI-8226; SF-295; SK-OV-3; SW-620.
Holding throughout (assay): NCI tumour cell line growth inhibition, 48 h

As for `CCNc1ncnc2sc(SCc3ccccc3)nc12`, the GI50 with A549 was 36.5 µM (inactive); with BT-549, > 100 µM (inactive); in the assay on CCRF-CEM it was 33.9 µM (inactive); in the assay with DU-145, 75.7 µM (inactive); with EKVX it was 42 µM (inactive); with HCC 2998 it was 81.1 µM (inactive). Further, the GI50 with HCT-116 is 85.9 µM (inactive); in the assay on HCT-15, above 100 µM; in the assay on HL-60, 16.6 µM (inactive); with HT-29 it was 58.1 µM (inactive); in the assay with NCI-H226, > 100 µM (inactive); in the assay with NCI-H460, 46.2 µM (inactive). The GI50 in the assay with NCI/ADR-RES is 34.8 µM (inactive); in the assay with OVCAR-5 it was > 100 µM (inactive); with OVCAR-8, 80.9 µM (inactive); in the assay with PC-3, 38.5 µM (inactive); with RPMI-8226, 43.3 µM (inactive); in the assay on SF-295 it was 89.5 µM (inactive). The GI50 in the assay with SK-OV-3 and with SW-620 was > 100 µM (inactive) throughout.
In the case of `CC1(C)CCC[C@@]2(C)C1CC[C@@]1(CO1)[C@@H]2/C=C\C(C=O)CC=O` (stereo not given in full), the GI50 was > 100 µM (inactive) in the assay on A549; > 100 µM (inactive) in the assay on BT-549; 17.3 µM (inactive) in the assay with CCRF-CEM; > 100 µM (inactive) in the assay with DU-145; > 100 µM (inactive) with EKVX; > 100 µM (inactive) in the assay with HCC 2998. In addition, the GI50 is 62.2 µM (inactive) with HCT-116; 73.6 µM in the assay on HCT-15; 21.6 µM (inactive) in the assay on HL-60; > 56.6 µM (inactive) in the assay with HT-29; > 100 µM (inactive) in the assay with NCI-H226; > 100 µM (inactive) in the assay with NCI-H460. Besides, the GI50 with NCI/ADR-RES was > 100 µM (inactive); in the assay with OVCAR-5, > 100 µM (inactive); with OVCAR-8, > 100 µM (inactive); in the assay with PC-3, > 70.3 µM (inactive); in the assay on RPMI-8226, 10.9 µM (inactive); in the assay with SF-295 it was > 100 µM (inactive). For the same compound, the GI50 in the assay on SK-OV-3 is > 100 µM (inactive); in the assay on SW-620, 67.1 µM (inactive).
For the compound `CCCCCCc1ccc(C(=O)NO)cc1`, the GI50 in the assay with A549 is 33.8 µM (inactive); in the assay with BT-549, 28.6 µM (inactive); in the assay with CCRF-CEM, 6.92 µM (inactive); in the assay on DU-145 it was 24.8 µM (inactive); in the assay with EKVX, 37.8 µM (inactive); in the assay on HCC 2998, 65.2 µM (inactive). Besides, the GI50 in the assay with HCT-116 was 29.6 µM (inactive); with HCT-15, 12.6 µM; in the assay with HL-60 it was 16.5 µM (inactive); in the assay on HT-29, 36 µM (inactive); in the assay on NCI-H226, 24.4 µM (inactive); in the assay on NCI-H460, 25 µM (inactive). Also, the GI50 in the assay with NCI/ADR-RES was 15.3 µM (inactive); with OVCAR-5, 75 µM (inactive); with OVCAR-8 it was 13.1 µM (inactive); in the assay on PC-3 it was 31.8 µM (inactive); in the assay on RPMI-8226, 12.6 µM (inactive); with SF-295, 40.6 µM (inactive). The GI50 in the assay with SK-OV-3 is 40.2 µM (inactive); in the assay with SW-620, 64.4 µM (inactive).
